Measurements taken from publication PMC10009787 (ACS Medicinal Chemistry Letters, 2023).
Several values for one entry are separate records, joined by “and”; a condition that tells them apart may be missing. Equal values may be shown once. Read-outs that look alike come from different tables or passages of the source.

Assays:
BMX = biological target: T1, BMX (Homo sapiens, UniProt P51813); experiment: SelectScreen kinase profiling / Z′-Lyte kinase assay
T1 sequence (P51813 1-675): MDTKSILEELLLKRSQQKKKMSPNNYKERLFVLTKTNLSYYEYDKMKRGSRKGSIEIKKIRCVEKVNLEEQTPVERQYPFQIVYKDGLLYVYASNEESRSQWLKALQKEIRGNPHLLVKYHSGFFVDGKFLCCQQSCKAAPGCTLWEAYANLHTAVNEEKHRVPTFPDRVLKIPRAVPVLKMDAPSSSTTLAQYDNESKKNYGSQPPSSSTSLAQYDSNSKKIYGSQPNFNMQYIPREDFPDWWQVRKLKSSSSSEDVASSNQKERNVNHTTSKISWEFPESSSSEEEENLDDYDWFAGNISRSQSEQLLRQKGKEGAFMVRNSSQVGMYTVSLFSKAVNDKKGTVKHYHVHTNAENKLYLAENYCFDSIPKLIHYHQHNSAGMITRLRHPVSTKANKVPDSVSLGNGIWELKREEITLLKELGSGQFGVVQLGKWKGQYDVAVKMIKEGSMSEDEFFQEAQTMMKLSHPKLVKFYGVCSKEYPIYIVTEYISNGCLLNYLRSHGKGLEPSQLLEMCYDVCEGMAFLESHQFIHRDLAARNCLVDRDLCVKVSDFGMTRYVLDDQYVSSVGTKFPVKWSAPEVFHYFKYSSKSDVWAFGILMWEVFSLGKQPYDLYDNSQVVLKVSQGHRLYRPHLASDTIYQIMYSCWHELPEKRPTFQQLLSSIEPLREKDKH

HCK = HCK (Homo sapiens, UniProt P08631); experiment: as above
LCK = LCK (Homo sapiens, UniProt P06239); experiment: SelectScreen kinase profiling; assay type: biochemical; settings: average of duplicate
Chain of LCK (P06239 whole entry): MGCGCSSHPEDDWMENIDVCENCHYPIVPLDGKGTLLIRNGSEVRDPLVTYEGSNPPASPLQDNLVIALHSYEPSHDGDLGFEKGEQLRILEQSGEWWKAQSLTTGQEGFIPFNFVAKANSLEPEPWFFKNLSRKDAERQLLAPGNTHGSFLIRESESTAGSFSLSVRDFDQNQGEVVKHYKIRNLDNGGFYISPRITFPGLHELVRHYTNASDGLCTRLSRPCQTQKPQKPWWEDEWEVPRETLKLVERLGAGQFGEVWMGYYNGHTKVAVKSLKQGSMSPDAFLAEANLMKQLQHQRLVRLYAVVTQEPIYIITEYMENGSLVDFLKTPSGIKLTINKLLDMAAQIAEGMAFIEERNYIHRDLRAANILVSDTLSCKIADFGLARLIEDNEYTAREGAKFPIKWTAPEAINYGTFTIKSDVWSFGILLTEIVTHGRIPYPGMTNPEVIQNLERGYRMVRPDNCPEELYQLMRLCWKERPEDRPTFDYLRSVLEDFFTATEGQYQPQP

Chain of HCK (P08631 whole entry): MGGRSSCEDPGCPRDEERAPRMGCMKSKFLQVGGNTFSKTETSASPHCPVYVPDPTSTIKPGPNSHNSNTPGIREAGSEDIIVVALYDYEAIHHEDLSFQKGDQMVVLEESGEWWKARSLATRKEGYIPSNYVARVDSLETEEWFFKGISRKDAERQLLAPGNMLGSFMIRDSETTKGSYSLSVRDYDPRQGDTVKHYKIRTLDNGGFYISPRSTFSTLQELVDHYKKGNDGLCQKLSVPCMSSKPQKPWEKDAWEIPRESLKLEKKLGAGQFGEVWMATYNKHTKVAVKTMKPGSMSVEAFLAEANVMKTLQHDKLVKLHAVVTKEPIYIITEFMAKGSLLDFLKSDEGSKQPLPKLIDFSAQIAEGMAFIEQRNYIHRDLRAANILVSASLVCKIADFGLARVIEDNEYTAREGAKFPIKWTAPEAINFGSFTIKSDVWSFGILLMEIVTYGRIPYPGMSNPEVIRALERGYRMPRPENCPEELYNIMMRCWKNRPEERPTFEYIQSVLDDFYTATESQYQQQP

Compound: C=CC(=O)N1CCCC(n2nc(-c3c(C)cc(Oc4ccccc4)cc3C)c3c(N)ncnc32)C1 (stereo in doubt) [Compound 3]
- inhibition at 1 µM (BMX): 94%
- IC50 (BMX; BMX IC50, Z′-Lyte, [ATP] Km app, 1 h incubation, duplicate): 5.7 nM and 5.67 nM
- Hillslope (BMX; BMX IC50 curve): 1.56
- inhibition at 0.000495 µM (BMX; read-out: % Inhibition Point 1): 6%
- inhibition at 0.00152 µM (BMX; read-out: % Inhibition Point 1): 16%
- inhibition at 0.00457 µM (BMX; read-out: % Inhibition Point 1): 48%
- inhibition at 0.0137 µM (BMX; read-out: % Inhibition Point 1): 78%
- inhibition at 0.0412 µM (BMX; read-out: % Inhibition Point 1): 94%
- inhibition at 0.123 µM (BMX; read-out: % Inhibition Point 1): 102%
- inhibition at 0.37 µM (BMX; read-out: % Inhibition Point 1): 101%
- inhibition at 1.11 µM (BMX; read-out: % Inhibition Point 1): 98%
- inhibition at 3.33 µM (BMX; read-out: % Inhibition Point 1): 99%
- inhibition at 10 µM (BMX; read-out: % Inhibition Point 1): 98%
- inhibition at 0.000495 µM (BMX; read-out: % Inhibition Point 2): 10%
- inhibition at 0.00152 µM (BMX; read-out: % Inhibition Point 2): 18%
- inhibition at 0.00457 µM (BMX; read-out: % Inhibition Point 2): 42%
- inhibition at 0.0137 µM (BMX; read-out: % Inhibition Point 2): 83%
- inhibition at 0.0412 µM (BMX; read-out: % Inhibition Point 2): 101%
- inhibition at 0.123 µM (BMX; read-out: % Inhibition Point 2): 97%
- inhibition at 0.37 µM (BMX; read-out: % Inhibition Point 2): 98%
- inhibition at 1.11 µM (BMX; read-out: % Inhibition Point 2): 102%
- inhibition at 3.33 µM (BMX; read-out: % Inhibition Point 2): 100%
- inhibition at 10 µM (BMX; read-out: % Inhibition Point 2): 102%
- inhibition at 1 µM (HCK): 19%
- HCK, BTK/Kinase (HCK; BTK selectivity from IC50 values): 180 x
- IC50 (HCK; HCK IC50, Z′-Lyte, [ATP] Km app, 1 h incubation, duplicate): 2310 nM
- Hillslope (HCK; HCK IC50 curve): 1.00
- inhibition at 0.000495 µM (HCK; read-out: % Inhibition Point 1): 10%
- inhibition at 0.00152 µM (HCK; read-out: % Inhibition Point 1): 9%
- inhibition at 0.00457 µM (HCK; read-out: % Inhibition Point 1): 10%
- inhibition at 0.0137 µM (HCK; read-out: % Inhibition Point 1): 6%
- inhibition at 0.0412 µM (HCK; read-out: % Inhibition Point 1): 9%
- inhibition at 0.123 µM (HCK; read-out: % Inhibition Point 1): 10%
- inhibition at 0.37 µM (HCK; read-out: % Inhibition Point 1): 19%
- inhibition at 1.11 µM (HCK; read-out: % Inhibition Point 1): 32%
- inhibition at 3.33 µM (HCK; read-out: % Inhibition Point 1): 48%
- inhibition at 10 µM (HCK; read-out: % Inhibition Point 1): 62%
- inhibition at 0.000495 µM (HCK; read-out: % Inhibition Point 2): 7%
- inhibition at 0.00152 µM (HCK; read-out: % Inhibition Point 2): 7%
- inhibition at 0.00457 µM (HCK; read-out: % Inhibition Point 2): 5%
- inhibition at 0.0137 µM (HCK; read-out: % Inhibition Point 2): 10%
- inhibition at 0.0412 µM (HCK; read-out: % Inhibition Point 2): 8%
- inhibition at 0.123 µM (HCK; read-out: % Inhibition Point 2): 15%
- inhibition at 0.37 µM (HCK; read-out: % Inhibition Point 2): 15%
- inhibition at 1.11 µM (HCK; read-out: % Inhibition Point 2): 29%
- inhibition at 3.33 µM (HCK; read-out: % Inhibition Point 2): 49%
- inhibition at 10 µM (HCK; read-out: % Inhibition Point 2): 65%
- inhibition at 1 µM (LCK): 74%
